Test results published in ChEMBL document CHEMBL5352391, “New structural classes of antimalarials” (Eur J Med Chem, 2022).
pEC50, pIC50, pKi: −log10 of the molar value. In brackets after ≈: the same amount, converted by molar mass.

How the values were obtained:
Plasmodium falciparum [1] = assay: Antiplasmodial activity against chloroquine sensitive Plasmodium falciparum GC03 infected in human erythrocyte assessed as inhibition of parasite growth incubated for 48 hrs by SYBR Green dye based fluorescence assay; assay type: functional, organism-based
[2] = Retention time of the compound by HPLC-MS analysis; assay type: physicochemical
Plasmodium falciparum [3] = assay: Antiplasmodial activity against Plasmodium falciparum K1 infected in human erythrocyte assessed as inhibition of parasite growth incubated for 72 hrs by [3H]-hypoxanthine incorporation based liquid scintillation counting method; assay type: functional, organism-based
Plasmodium falciparum [4] = assay: Antiplasmodial activity against chloroquine resistant Plasmodium falciparum RKL9 infected in human erythrocyte assessed as inhibition of parasite growth incubated for 24 hrs by three fold serial dilution assay; assay type: functional
Plasmodium falciparum [5] = assay: Antiplasmodial activity against mixture of chloroquine resistant Plasmodium falciparum RKL 303-chloroquine sensitive Plasmodium falciparum 3D7 infected in human erythrocyte assessed as inhibition of parasite growth incubated for 48 hrs by Giemsa staining based microscopic analysis; assay type: functional, organism-based
Plasmodium berghei = assay: Antimalarial activity against Plasmodium berghei ANKA infected in Swiss albino mouse assessed as reduction in parasitemia at 50 micromol/kg,po administrated for 4 days by Giemsa staining based microscopic analysis; assay type: functional; set-up: scale not given: the % may be the effect or the level left; conditions: dose 50 µmol/kg, time 4 day
Plasmodium falciparum [6] = assay: Antiplasmodial activity against chloroquine sensitive Plasmodium falciparum 3D7 assessed as inhibition of parasite growth incubated for 48 hrs by Malstat reagent based spectrophotometric; assay type: functional, organism-based; conditions: 3D7, 48 h
Plasmodium falciparum [7] = assay: Antimalarial activity against Plasmodium falciparum 3D7 assessed as reduction of parasite growth at 25 uM incubated for 96 hrs by SYBR green I dye based fluorescence assay relative to control; assay type: functional; set-up: scale not given: the % may be the effect or the level left
Plasmodium falciparum [8] = assay: Antiplasmodial activity against chloroquine resistant Plasmodium falciparum K14 assessed as inhibition of parasite growth incubated for 48 hrs by [3H]-hypoxanthine incorporation based microbeta scintillation counting method; assay type: functional, organism-based
Plasmodium falciparum [9] = assay: Antiplasmodial activity against chloroquine resistant Plasmodium falciparum RKL-2 assessed as inhibition of parasite growth incubated for 36 to 40 hrs by Giemsa staining based microscopic analysis; assay type: functional, organism-based
Plasmodium falciparum [10] = assay: Antiplasmodial activity against chloroquine resistant Plasmodium falciparum K14 assessed as inhibition of parasite growth incubated for 42 hrs by [3H]-hypoxanthine incorporation based microbeta scintillation counting method; assay type: functional, organism-based
Plasmodium falciparum [11] = assay: Antimalarial activity against Plasmodium falciparum 3D7 assessed as inhibition of parasite growth by measuring minimum inhibitory concentration by microassay; assay type: functional
Plasmodium falciparum [12] = assay: Antimalarial activity against Plasmodium falciparum 3D7 assessed as reduction of parasite growth incubated for 96 hrs by SYBR green I dye based fluorescence assay; assay type: functional, organism-based; conditions: 3D7, 96 h
Plasmodium falciparum [13] = assay: Antiplasmodial activity against erythrocytic stage of Plasmodium falciparum 3D7 assessed as reduction of parasite growth incubated for 100 hrs by SYBR Green dye based fluorescence assay; assay type: functional, organism-based; conditions: 3D7, 100 h
Plasmodium falciparum [14] = assay: Antiplasmodial activity against erythrocytic stage of Plasmodium falciparum NF54 assessed as reduction of parasite growth incubated for 48 hrs by [3H]-hypoxanthine incorporation based beta-plate liquid scintillation counting method; assay type: functional, organism-based
Plasmodium falciparum [15] = assay: Antiplasmodial activity against erythrocytic stage of Plasmodium falciparum K1 assessed as reduction of parasite growth incubated for 48 hrs by [3H]-hypoxanthine incorporation based beta-plate liquid scintillation counting method; assay type: functional, organism-based
[16] = Cytotoxicity against human HepG2 cells assessed as reduction in cell viability incubated for 72 hrs by MTT assay; assay type: toxicity, cell-based
[17] = Selectivity index, ratio of CC50 for cytotoxicity against human HepG2 cells by MTT assay to EC50 for antiplasmodial activity against erythrocytic stage of Plasmodium falciparum NF54 by [3H]-hypoxanthine incorporation based liquid scintillation counting method; assay type: toxicity, cell-based; conditions: read-out: Ratio CC50/EC50
[18] = Selectivity index, ratio of CC50 for cytotoxicity against human HepG2 cells by MTT assay to EC50 for antiplasmodial activity against erythrocytic stage of Plasmodium falciparum K1 by [3H]-hypoxanthine incorporation based liquid scintillation counting method; assay type: toxicity, cell-based; conditions: read-out: Ratio CC50/EC50
Falcipain 2 = target: T1, Falcipain 2 (Plasmodium falciparum, UniProt Q9N6S8); assay: Inhibition of Plasmodium falciparum recombinant His-tagged falcipain-2 expressed in Escherichia coli assessed as inhibition constant using Cbz-Phe-Arg-AMC as substrate by fluorescence spectrophotometer assay
T1 sequence (Q9N6S8 whole entry): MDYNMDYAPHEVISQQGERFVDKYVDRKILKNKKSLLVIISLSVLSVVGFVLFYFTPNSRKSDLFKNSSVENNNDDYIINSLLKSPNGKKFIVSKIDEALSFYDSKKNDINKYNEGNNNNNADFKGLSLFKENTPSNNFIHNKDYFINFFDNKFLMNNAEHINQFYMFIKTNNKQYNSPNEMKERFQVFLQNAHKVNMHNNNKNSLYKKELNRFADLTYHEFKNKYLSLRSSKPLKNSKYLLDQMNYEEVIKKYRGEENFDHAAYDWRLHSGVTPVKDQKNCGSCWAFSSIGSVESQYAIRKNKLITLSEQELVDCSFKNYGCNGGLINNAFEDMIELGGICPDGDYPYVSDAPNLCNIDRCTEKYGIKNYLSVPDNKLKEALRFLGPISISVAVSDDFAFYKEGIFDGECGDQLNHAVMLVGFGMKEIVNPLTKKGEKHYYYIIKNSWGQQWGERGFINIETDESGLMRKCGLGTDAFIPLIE

In the case of N=C(N)c1ccc(-c2cn(-c3ccc(C(=N)N)cc3)nn2)cc1, the pIC50 (Plasmodium falciparum [1]) was 7.06.
With N=C(N)c1ccc(-n2cc(-c3cccc(C(=N)N)c3)nn2)cc1 the pIC50 (Plasmodium falciparum [1]) was 6.36.
Work on N=C(N)c1ccc(-c2cn(-c3cccc(C(=N)N)c3)nn2)cc1 yielded a pIC50 (Plasmodium falciparum [1]) of 6.56.
C=C(C)[C@H](O)[C@@H](O)C[C@@H](C)C1=C2C[C@H](O)[C@H]3[C@@]4(C)CCC(=O)C(C)(C)[C@@H]4CC[C@]3(C)[C@@]2(C)CC1 gave a Retention_time [2] of 23 min and a pIC50 (Plasmodium falciparum [3]) of 5.16.
With O=C(N/N=C/C=C/c1ccccc1)c1ccncc1 the “inhibition (INH)” value (Plasmodium falciparum [4]) was 80%.
With O=C(N/N=C/c1ccc(O)cc1)c1ccncc1 the “inhibition (INH)” value (Plasmodium falciparum [4]) was 90%.
COc1ccc(/C=C/C(=O)c2ccc(-n3cnc4ccccc43)cc2)c(OC)c1 showed an IC50 (Plasmodium falciparum [5]) of 1.1 µg/mL (≈ 2.86 µM).
In the case of COc1ccc(/C=N/NC(=O)c2ccncc2)cc1O, the “inhibition (INH)” value (Plasmodium falciparum [4]) was 91%.
Cc1ccc(-n2cc(C=O)c(-c3ccccc3)n2)cc1 gave an Activity (Plasmodium berghei) of 85%.
With Cc1ccc(-n2cc(C(=O)O)c(-c3ccccc3)n2)cc1 the Activity (Plasmodium berghei) was 95%.
In the case of O=Cc1cn(-c2ccc(Cl)cc2)nc1-c1ccccc1, the Activity (Plasmodium berghei) was 83%.
For CC(=O)Nc1cc(/C=C/c2ccc(F)cc2)cc2cc(-c3ccc(F)cc3)[nH]c12, the pIC50 (Plasmodium falciparum [6]) was 5.67.
Compound COC(=O)[C@H](Cc1ccc(O)c(-c2ccc3ccccc3c2)c1)NC(=O)C(=O)c1c[nH]c2ccccc12 has an Activity (Plasmodium falciparum [7]) of 60%.
Work on COc1ccc(N2C(=O)[C@@H](Oc3ccc(Cl)cc3Cl)[C@H]2c2ccc(NC(=O)N3CCOCC3)cc2)cc1 yielded a pIC50 (Plasmodium falciparum [8]) of 4.68.
Work on CCN(Cc1cc(C2(C)OOC(c3ccncc3)OO2)ccc1O)c1ccccc1 (centres undefined) yielded an IC50 (Plasmodium falciparum [9]) of 5.3 µg/mL (≈ 13 µM).
COC(=O)[C@H](Cc1ccc(O)c(-c2ccc(C(F)(F)F)cc2)c1)NC(=O)C(=O)c1c[nH]c2ccccc12 gave an Activity (Plasmodium falciparum [7]) of 60%.
Work on COC(=O)[C@H](Cc1ccc(O)c(I)c1)NC(=O)C(=O)c1c[nH]c2ccccc12 yielded an Activity (Plasmodium falciparum [7]) of 20%.
CCN(Cc1cc(C2(C)OOC(c3ccccc3)OO2)ccc1O)c1ccccc1 (centres undefined) gave an IC50 (Plasmodium falciparum [9]) of 5.3 µg/mL (≈ 13 µM).
CCN(Cc1cc(C2(C)OOC(c3cccs3)OO2)ccc1O)c1ccccc1 (centres undefined) gave an IC50 (Plasmodium falciparum [9]) of 5.3 µg/mL (≈ 12.8 µM).
With CCN(CC)c1ccc(/N=C/c2cccc(CN3CCOCC3)c2O)cc1 the pIC50 (Plasmodium falciparum [10]) was 5.64.
Compound Cc1ccc(C2=C/C(=C/c3cc4cc(C)ccc4nc3Cl)C(=O)O2)cc1 has an MIC (Plasmodium falciparum [11]) of 50 µg/mL (≈ 138 µM).
COC(=O)[C@H](Cc1ccc(O)c(-c2ccc(F)cc2)c1)NC(=O)C(=O)c1c[nH]c2ccccc12 showed an Activity (Plasmodium falciparum [7]) of 60% and a pEC50 (Plasmodium falciparum [12]) of 5.89.
With CC1(C)C2CC=C(CC(=O)Oc3ccnc4cc(Cl)ccc34)[C@@H]1C2 the pEC50 (Plasmodium falciparum [13]) was < 4.30, the pEC50 (Plasmodium falciparum [14]) was 4.63 and the pEC50 (Plasmodium falciparum [15]) was 6.79. The CC50 at 72 h [16] was > 160000 nM, the selectivity ratio [17] was 0.7 and the selectivity ratio [18] was > 976.
Compound Oc1ccccc1/N=C/c1cccc(CN2CCOCC2)c1O has a pIC50 (Plasmodium falciparum [10]) of 5.64.
COC(=O)[C@H](Cc1ccc(O)c(-c2ccc(C(C)(C)C)cc2)c1)NC(=O)C(=O)c1c[nH]c2ccccc12 gave an Activity (Plasmodium falciparum [7]) of 60%.
Oc1ccc(/N=C/c2cccc(CN3CCOCC3)c2O)cc1 showed a pIC50 (Plasmodium falciparum [10]) of 5.64.
Work on N=C(NC(=O)OCc1ccccc1)NC(=O)c1ccc(C(=O)OCc2ccccc2)o1 yielded a pKi (Falcipain 2) of 5.57.
